From PMC9114338 (Scientific Reports, 2022)

Key:
[1] = Intravenous TAF pharmacokinetic mouse study (plasma, PBMC, tissue homogenate); format: in vivo, C57BL/6 J mice; settings: female, C57BL/6 J, mouse, iv, 0.5 mg
Protocol: C57BL/6 J Mice (9 groups of 4 animals each; 36 mice total) were administered the study product (0.5 mg dose, 0.1 mL) by intravenous (IV) injection. Animals (N = 4) were sacrificed at the following timepoints: Day 1 (1, 3, 6, 12, 24 h), Day 2, 4, 8, and 14. Blood was collected by exsanguination along with select tissue specimens (vide infra).
The isolation of plasma and PBMCs from blood samples was carried out in a laminar flow hood using aseptic techniques, and the entire process was completed in under 45 min to minimize analyte metabolism. Blood was transferred into collection tubes containing sodium citrate (final concentration, 0.4% w/v), diluted using one volume equivalent of 1 × PBS solution, and mixed by inversion. The minimum final volume was 4.0 mL. Prior to the addition of blood samples, Ficoll-Paque media (MilliporeSigma, Burlington, MA, 3.2 mL) was transferred into a 12 mL LeucoSep tube (Greiner, Monroe, NC) and centrifuged at 1000 g for 20 s at room temperature, causing the media to settle just below the porous barrier. The homogenous, diluted blood-PBS mixture was transferred into the prepared LeucoSep tube and centrifuged at 1000 g for 10 min at room temperature, resulting in the formation of three layers above the porous barrier: (A) top layer, consisting of the plasma fraction; (B) middle, interface layer, containing the PBMCs; and (C) thin lower layer, just above the barrier, consisting of Ficoll-Paque media. Layer A (plasma) was transferred to empty 1.5 mL microfuge tubes in 0.5 mL aliquots, and flash-frozen in liquid nitrogen. Layer B (PBMCs) was transferred into an empty 15 mL centrifuge tube and PBS added to the 12 mL mark, followed by gentle inversion mixing. The suspension was centrifuged at 400 g for 15 min, the supernatant removed, and the pellet resuspended in PBS (10 mL) by gentle pipetting. An aliquot (10 µL) was removed from the suspension for cell counting and the remaining sample was centrifuged at 400 g for 15 min. The supernatant was removed without disturbing the cell pellet, which was treated with ice-cold 70% v/v methanol in molecular-grade water (1.0 mL). The mixture was mixed lightly by vortex agitation to lyse the cells, followed by transfer to a 2.0 mL cryovial that was flash-frozen in liquid nitrogen.
Vaginal, rectal, spleen, and thymus tissue samples were collected from sacrificed animals at Day 1 (12, 24 h), Day 4, and 8; rectal tissue samples were not collected at 12 h. The samples were transferred into pre-weighed sample tubes, weighed, and flash-frozen in liquid nitrogen.
PBMC results were normalized to the number of cells and reported as fmol/10^6 cells or as intracellular concentration based on cell volume, in nM. Tissue results were normalized to sample mass and reported as ng mg^-1 or fmol mg^-1.

[2] = Compartmental PK model, IV and SQ co-modeling; format: in vivo, C57BL/6 J mice; settings: mouse
Source text: The results of the simultaneous model (co-model) are summarized in Table 2, and the parameters were used in subsequent simulation exercises (vide infra).
The change in amount over time within each compartment was related to the difference in the input into the compartment (e.g., the Dose × F × Ka term into compartment C1) and the output from the compartment (e.g., the Concentration × Kout term for compartment Ccell). Two compartments –plus a dosing compartment– best described TFV plasma PKs.
A third compartment was used to model the PKs of PBMC TFV-DP concentrations. Intracellular PKs of TFV-DP were linked to the plasma TFV concentration via saturable uptake (Vmax and Km) with maximum velocity of uptake and first order elimination kinetics, Kout. […] C1 is the central compartment, representing the TFV plasma concentration in the body. The second compartment C2 represents the peripheral tissues, and the cellular compartment Ccell represents the concentrations of TFV-DP in PBMCs. Parameters CLp and Vp describe clearance and volume of the peripheral compartment (C2) and Ka and CL are the rates of TFV uptake and clearance into/out of the central compartment (C1), respectively. […] The physiological PBMC volume was assumed to be 7.55 × 10^–7 L/10^6 cells, to remain consistent with Duwal et al.[44] for the model analysis, while all other parameters were estimated in the model. The ordinary differential equations (Eqs. 1–3) used in the final model are presented below:1 d/dtC1t=F·Ka·Dt/V-C1t·CL/V-CLp/V·C1t+CLp/Vp·C2t 2 d/dtC2t=[…] 3 d/dtCcellt=Vmax·C1t/Km-Ccellt·Kout
Compartmental analyses were performed in Phoenix software (version 8.3, Certara, Princeton, NJ) using a published, simple, structural PK model describing the TFV kinetics. IV and SQ data were modeled simultaneously. Due to the destructive nature of the blood sampling, data were modeled using a naïve-pooled algorithm, without inter-animal variability. The resulting systemic parameters, along with the implant in vivo release rates on a per animal basis, were used to co-model (predict) concentration data in mice following during implant dosing.

[3] = subcutaneous dosing of the free drug, humanized mice; cited from earlier work

half-life ([1]; rectal tissue, read-out: Terminal half-life in rectal tissue (NCA) (converted)): 43 h
half-life ([1]; spleen, read-out: Terminal half-life in spleen (NCA) (converted)): 30.5 h
half-life ([1]; thymus, read-out: Terminal half-life in thymus (NCA) (converted)): 20.1 h
half-life ([1]; vaginal tissue, read-out: Terminal half-life in vaginal tissue (NCA) (converted)): 39.1 h
clearance ([2]; C57BL/6 J, plasma, other: intravenous and subcutaneous injection, co-modelled, 0.5 mg, IV and SQ co-modeling, read-out: CL, total body clearance (converted)): 4.48 mL/min
half-life ([2]; C57BL/6 J, plasma, other: intravenous and subcutaneous injection, co-modelled, 0.5 mg, IV and SQ co-modeling, read-out: Elimination half-life t1/2, plasma TFV (converted)): 53 h
Vd ([2]; C57BL/6 J, plasma, other: intravenous and subcutaneous injection, co-modelled, 0.5 mg, IV and SQ co-modeling, read-out: V, volume of distribution of the central compartment): 4.59 L
half-life ([2]; C57BL/6 J, plasma, other: intravenous and subcutaneous injection, co-modelled, 0.5 mg, IV and SQ co-modeling, read-out: t1/2, elimination half-life, plasma TFV (converted)): 52.8 h
Vmax/Km as share of the non-saturable clearance ([2]; in vivo): 2%
SMILES: C[C@H](Cn1cnc2c(N)ncnc21)OCP(=O)(O)O [TFV, tenofovir]
Plasma TFV t1/2 [3]: 14 h
